From PubChem BioAssay (NCI)
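Briefly, cells in 96-well plates were exposed to five compound concentrations for 48 h, and endpoints were estimated by linear interpolation. Abbreviation: GI50, concentration required for 50% inhibition of growth. TGI is the concentration that stops growth completely.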

Legend:
Assay in all cases: inhibition of tumour cell growth, NCI panel, 48 h
[1] = test system: 786-0 renal
[2] = test system: A498 renal
[3] = test system: A549 NSCLC
[4] = test system: ACHN renal
[5] = test system: BT-549 breast
[6] = test system: CCRF-CEM leukemia
[7] = test system: COLO 205 colon
[8] = test system: DU-145 prostate
[9] = test system: EKVX NSCLC
[10] = test system: HCC-2998 colon
[11] = test system: HCT-116 colon
[12] = test system: HCT-15 colon
[13] = test system: HL-60(TB) leukemia
[14] = test system: HOP-62 NSCLC
[15] = test system: HOP-92 NSCLC
[16] = test system: HS 578T breast
[17] = test system: HT29 colon
[18] = test system: IGROV1 ovarian
[19] = test system: K-562 leukemia
[20] = test system: KM12 colon
[21] = test system: LOX IMVI melanoma
[22] = test system: M14 melanoma
[23] = test system: MALME-3M melanoma
[24] = test system: MCF7 breast
[25] = test system: MDA-MB-231 breast
[26] = test system: MDA-MB-435
[27] = test system: MOLT-4 leukemia
[28] = test system: NCI-H226 lung
[29] = test system: NCI-H23 lung
[30] = test system: NCI-H460 lung
[31] = test system: NCI-H522 lung
[32] = test system: NCI/ADR-RES ovarian
[33] = test system: OVCAR-3 ovarian
[34] = test system: OVCAR-4 ovarian
[35] = test system: OVCAR-5 ovarian
[36] = test system: OVCAR-8 ovarian
[37] = test system: PC-3 prostate
[38] = test system: RPMI-8226 leukemia
[39] = test system: RXF 393 renal
[40] = test system: SF-268 CNS
[41] = test system: SF-295 CNS
[42] = test system: SF-539 CNS
[43] = test system: SK-MEL-2 melanoma
[44] = test system: SK-MEL-28 melanoma
[45] = test system: SK-MEL-5 melanoma
[46] = test system: SK-OV-3 ovarian
[47] = test system: SN12C renal
[48] = test system: SNB-19 CNS
[49] = test system: SNB-75 CNS
[50] = test system: SR leukemia
[51] = test system: SW-620 colon
[52] = test system: T-47D breast
[53] = test system: TK-10 renal
[54] = test system: U251 CNS
[55] = test system: UACC-257 melanoma
[56] = test system: UACC-62 melanoma
[57] = test system: UO-31 renal

SMILES: C=C1C(=O)O[C@H]2[C@H]1CC/C(C=Nc1c(N)cc(C(F)(F)F)cc1Br)=C\CC[C@@]1(C)O[C@@H]21
- GI50 [1]: 2.14 µM
- TGI [1]: 3.91 µM
- GI50 [2]: 2.03 µM
- TGI [2]: 4.8 µM
- GI50 [3]: 2.03 µM
- TGI [3]: 5.11 µM
- GI50 [4]: 1.41 µM
- TGI [4]: 2.71 µM
- GI50 [5]: 1.41 µM
- TGI [5]: 2.91 µM
- GI50 [6]: 0.33 µM
- TGI [6]: 11.2 µM
- GI50 [7]: 1.6 µM
- TGI [7]: 3.16 µM
- GI50 [8]: 1.48 µM
- TGI [8]: 2.95 µM
- GI50 [9]: 1.84 µM
- TGI [9]: 5.1 µM
- GI50 [10]: 1.83 µM
- TGI [10]: 3.52 µM
- GI50 [11]: 1.11 µM
- TGI [11]: 2.41 µM
- GI50 [12]: 1.55 µM
- TGI [12]: 4.24 µM
- GI50 [13]: 0.397 µM
- TGI [13]: 2.48 µM
- GI50 [14]: 2.17 µM
- TGI [14]: 4.82 µM
- GI50 [15]: 1.17 µM
- TGI [15]: 2.75 µM
- GI50 [16]: 2.08 µM
- TGI [16]: 9.5 µM
- GI50 [17]: 1.63 µM
- TGI [17]: 3.13 µM
- GI50 [18]: 1.42 µM
- TGI [18]: 3.01 µM
- GI50 [19]: 1.99 µM
- TGI [19]: 6.87 µM
- GI50 [20]: 1.8 µM
- TGI [20]: 3.97 µM
- GI50 [21]: 1.4 µM
- TGI [21]: 2.74 µM
- GI50 [22]: 1.71 µM
- TGI [22]: 3.55 µM
- GI50 [23]: 1.71 µM
- TGI [23]: 3.34 µM
- GI50 [24]: 0.982 µM
- TGI [24]: 4.48 µM
- GI50 [25]: 1.33 µM
- TGI [25]: 3.15 µM
- GI50 [26]: 1.86 µM
- TGI [26]: 5.74 µM
- GI50 [27]: 0.624 µM
- TGI [27]: > 100 µM
- GI50 [28]: 2.09 µM
- TGI [28]: 5.29 µM
- GI50 [29]: 1.84 µM
- TGI [29]: 4.41 µM
- GI50 [30]: 1.78 µM
- TGI [30]: 3.81 µM
- GI50 [31]: 1.37 µM
- TGI [31]: 2.96 µM
- GI50 [32]: 2.31 µM
- GI50 [33]: 1.29 µM
- TGI [33]: 2.65 µM
- GI50 [34]: 1.57 µM
- TGI [34]: 3.45 µM
- GI50 [35]: 1.83 µM
- TGI [35]: 3.75 µM
- GI50 [36]: 2.34 µM
- TGI [36]: 9.03 µM
- GI50 [37]: 1.5 µM
- TGI [37]: 3.85 µM
- GI50 [38]: 0.399 µM
- TGI [38]: 2.37 µM
- GI50 [39]: 1.59 µM
- TGI [39]: 3.11 µM
- GI50 [40]: 1.4 µM
- TGI [40]: 3.34 µM
- GI50 [41]: 2.66 µM
- TGI [41]: 7.96 µM
- GI50 [42]: 1.51 µM
- TGI [42]: 2.87 µM
- GI50 [43]: 1.63 µM
- TGI [43]: 3.47 µM
- GI50 [44]: 1.88 µM
- TGI [44]: 3.66 µM
- GI50 [45]: 1.35 µM
- TGI [45]: 2.64 µM
- GI50 [46]: 6.56 µM
- TGI [46]: 18.9 µM
- GI50 [47]: 1.5 µM
- TGI [47]: 3.51 µM
- GI50 [48]: 3.46 µM
- TGI [48]: 13.2 µM
- GI50 [49]: 1.27 µM
- TGI [49]: 3.67 µM
- GI50 [50]: 1.08 µM
- TGI [50]: 6.73 µM
- GI50 [51]: 1.53 µM
- TGI [51]: 3.71 µM
- GI50 [52]: 1.45 µM
- TGI [52]: 3.42 µM
- GI50 [53]: 1.98 µM
- TGI [53]: 3.49 µM
- GI50 [54]: 1.69 µM
- TGI [54]: 3.17 µM
- GI50 [55]: 1.64 µM
- TGI [55]: 3.61 µM
- GI50 [56]: 1.41 µM
- TGI [56]: 2.96 µM
- GI50 [57]: 1.26 µM
- TGI [57]: 2.52 µM

SMILES: Nc1ccc(/C=C/C(=O)NCc2cc3cc(-c4ccc(C(=O)N5CCC(F)(F)CC5)cc4)cc(-c4ccc(F)cc4)c3o2)cn1
- GI50 [1]: 40.3 µM
- TGI [1]: > 100 µM
- GI50 [2]: > 100 µM
- TGI [2]: > 100 µM
- GI50 [3]: > 100 µM
- TGI [3]: > 100 µM
- GI50 [4]: 83.9 µM
- TGI [4]: > 100 µM
- GI50 [5]: 5.95 µM
- TGI [5]: > 100 µM
- GI50 [6]: 0.083 µM
- TGI [6]: > 100 µM
- GI50 [7]: 0.327 µM
- TGI [7]: > 62.9 µM
- GI50 [8]: 4.15 µM
- TGI [8]: > 100 µM
- GI50 [9]: > 100 µM
- TGI [9]: > 100 µM
- GI50 [10]: 10.5 µM
- TGI [10]: > 100 µM
- GI50 [11]: 0.0491 µM
- TGI [11]: > 100 µM
- GI50 [12]: 0.679 µM
- TGI [12]: > 100 µM
- GI50 [13]: 5.61 µM
- TGI [13]: > 100 µM
- GI50 [14]: > 59.3 µM
- TGI [14]: > 100 µM
- GI50 [15]: 28.3 µM
- TGI [15]: > 100 µM
- GI50 [16]: > 100 µM
- TGI [16]: > 100 µM
- GI50 [17]: 1.89 µM
- TGI [17]: > 100 µM
- GI50 [18]: > 44.7 µM
- TGI [18]: > 100 µM
- GI50 [19]: 0.356 µM
- TGI [19]: > 100 µM
- GI50 [20]: 1.21 µM
- TGI [20]: > 100 µM
- GI50 [21]: > 77.5 µM
- TGI [21]: > 100 µM
- GI50 [22]: 0.459 µM
- TGI [22]: > 55.8 µM
- GI50 [23]: > 100 µM
- TGI [23]: > 100 µM
- GI50 [24]: 14.4 µM
- TGI [24]: > 100 µM
- GI50 [25]: 15.1 µM
- TGI [25]: > 100 µM
- GI50 [26]: 0.752 µM
- TGI [26]: > 100 µM
- GI50 [27]: 3.46 µM
- TGI [27]: > 100 µM
- GI50 [28]: > 100 µM
- TGI [28]: > 100 µM
- GI50 [29]: > 100 µM
- TGI [29]: > 100 µM
- GI50 [30]: 10.9 µM
- TGI [30]: > 100 µM
- GI50 [31]: 0.773 µM
- TGI [31]: > 100 µM
- GI50 [32]: 4.91 µM
- TGI [32]: > 100 µM
- GI50 [33]: > 39.1 µM
- TGI [33]: > 100 µM
- GI50 [34]: > 71.5 µM
- TGI [34]: > 100 µM
- GI50 [35]: 8.43 µM
- TGI [35]: > 100 µM
- GI50 [36]: 0.0404 µM
- TGI [36]: > 100 µM
- GI50 [37]: 0.534 µM
- TGI [37]: > 100 µM
- GI50 [38]: 0.563 µM
- TGI [38]: > 100 µM
- GI50 [39]: 37.8 µM
- TGI [39]: > 100 µM
- GI50 [40]: > 100 µM
- TGI [40]: > 100 µM
- TGI [41]: > 100 µM
- GI50 [42]: 0.118 µM
- TGI [42]: > 100 µM
- GI50 [43]: > 100 µM
- TGI [43]: > 100 µM
- GI50 [44]: > 100 µM
- TGI [44]: > 100 µM
- GI50 [45]: 14.2 µM
- TGI [45]: > 100 µM
- GI50 [46]: > 100 µM
- TGI [46]: > 100 µM
- GI50 [47]: 0.0589 µM
- TGI [47]: > 100 µM
- GI50 [48]: 3.96 µM
- TGI [48]: > 100 µM
- GI50 [49]: > 100 µM
- TGI [49]: > 100 µM
- GI50 [50]: 12.9 µM
- TGI [50]: > 100 µM
- GI50 [51]: 0.0571 µM
- TGI [51]: > 100 µM
- GI50 [52]: 0.784 µM
- TGI [52]: > 100 µM
- GI50 [53]: > 100 µM
- TGI [53]: > 100 µM
- GI50 [54]: 1.16 µM
- TGI [54]: > 100 µM
- GI50 [55]: > 100 µM
- TGI [55]: > 100 µM
- GI50 [56]: > 100 µM
- TGI [56]: > 100 µM
- GI50 [57]: > 47.6 µM
- TGI [57]: > 100 µM
